One may read the Km as the substrate concentration at which the rate is half of its maximum.

Structures are written as SMILES.

The source of these data is PMC12516557, “Isolation and characterization of peroxidase from potato leaves Solanum tuberosum: Application in glucose diagnostic kit” (Journal of Genetic Engineering & Biotechnology, 2025).

The test system of the assay is T1, potato leaves peroxidase (PLPOD).
T1 construct: gene POD; native enzyme from mature leaves (Nile Delta, Egypt); CM-cellulose and Sephacryl S-300; 64 kDa by gel filtration; 3 activity bands ~40-65 kDa on SDS-PAGE
In words: guaiacol oxidation at […] nm, Lineweaver-Burk plot. It is filed as biochemical, Solanum tuberosum. Particulars: co-substrate H2O2; sodium acetate buffer pH 5.6 (general assay); mixture of isoenzymes; discussion b65 prints 0.066 mM.

On to `COc1ccccc1O` [guaiacol], for which the Km was 67 µM.
